Entries after “also recorded” stand apart in the source; their conditions may differ. Read-outs that look alike come from different tables or passages of the source.

Series [1] has as its target T1, AATase (Saccharomyces cerevisiae, UniProt P40353, N391K/T84I).
T1 construct: culturing yeast cells of Saccharomyces cerevisiae KYOKAI No. 7 and recovering and purifying the crude enzyme; endogenous in cells; host or cells: Saccharomyces cerevisiae KYOKAI No. 7 (sake yeast)
T1 sequence (P40353 1-525 T84I/N391K): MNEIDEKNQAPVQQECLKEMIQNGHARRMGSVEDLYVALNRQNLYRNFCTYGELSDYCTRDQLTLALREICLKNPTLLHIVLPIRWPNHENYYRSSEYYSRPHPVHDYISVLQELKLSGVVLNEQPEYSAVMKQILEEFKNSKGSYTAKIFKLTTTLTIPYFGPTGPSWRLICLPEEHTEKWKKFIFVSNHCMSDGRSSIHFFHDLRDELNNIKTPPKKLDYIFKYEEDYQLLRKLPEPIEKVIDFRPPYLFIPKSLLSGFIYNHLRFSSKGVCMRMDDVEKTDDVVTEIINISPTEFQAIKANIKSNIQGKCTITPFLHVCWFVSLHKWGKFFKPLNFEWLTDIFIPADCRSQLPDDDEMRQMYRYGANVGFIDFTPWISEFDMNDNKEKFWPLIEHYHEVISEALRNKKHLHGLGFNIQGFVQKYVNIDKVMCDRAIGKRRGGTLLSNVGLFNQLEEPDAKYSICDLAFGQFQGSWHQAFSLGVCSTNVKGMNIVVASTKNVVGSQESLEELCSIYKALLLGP
As to the kind of experiment: biochemical. It counts as biochemical.

Series [2] deals with T1, AATase. As to the kind of experiment: biochemical. The settings on record: read-out: Relative activity (%).
Substrate in series [3]: CC(=O)SCCNC(=O)CCNC(=O)[C@H](O)C(C)(C)COP(=O)(O)OP(=O)(O)OC[C@H]1O[C@@H](n2cnc3c(N)ncnc32)[C@H](O)[C@@H]1OP(=O)(O)O
As to the kind of experiment: Km value of AATase to isoamyl alcohol and acetyl-CoA. It counts as biochemical, Saccharomyces cerevisiae. The settings on record: other: substrate of AATase; pH 7.5; 25.0 °C. The procedure:
(§1) A 1 ml of a solution containing a buffer for AATase reaction (25 mM imidazole hydrochloride buffer (pH 7.5), 1 mM acetyl-CoA, 0.1% Triton X-100, 0.5% isoamyl alcohol, 1 mM dithiothreitol, 0.1M sodium chloride, 20% glycerol: or 10 mM phosphate buffer (pH 7.5), 1 mM acetyl-CoA, 0.1% Triton X-100, 0.5% isoamyl alcohol, 1 mM dithiothreitol, 0.1M sodium chloride, 20% glycerol) and the enzyme of the present invention was encapsulated into a 20 ml vial and reacted at 25° C. for 1 hour. After incubation, the vial was opened and the reaction was stopped by adding 0.6 g of sodium chloride. n-Butanol was added as an internal standard to the reaction mixture up to 50 ppm. The vial was capped with a teflon stopper. Then, the isoamyl acetate generated was determined with the head space gas chromatography (Shimadzu GC-9A, HSS-2A) under the following condition: […]

Substrate in series [4]: CC(C)CCO
Described as above. The settings on record: other: substrate of AATase; pH 7.5; 25.0 °C. It counts as biochemical, Saccharomyces cerevisiae. The protocol: as §1

`c1cnc2c(c1)ccc1cccnc12` [1,10-phenanthroline]: the activity at 1000 µM on AATase [1] (read-out: Relative activity (%)) worked out at 87.9%.
`O=C(O)c1cc(SSc2ccc([N+](=O)[O-])c(C(=O)O)c2)ccc1[N+](=O)[O-]` [DTNB, Dithiobis(2nitrobenzoic acid)]: the “Relative activity (%)” value on AATase [1] (inhibitor 0.1 mM per footnote (head: 1 mM), None = 100) is 0%.
Take `CCCCC/C=C\C/C=C\CCCCCCCC(=O)O` [Linoleic acid]: the activity at 2000 µM on AATase [2] was 4.3%.
For the molecule `CC/C=C\C/C=C\C/C=C\CCCCCCCC(=O)O` [Linolenic acid], the activity at 2000 µM on AATase [2] is 32%.
Consider `CCCCCCCCCCCCCC(=O)O` [Myristic acid], for which, at AATase [2], the activity at 2000 µM was found to be 60.5%.
Turning to `CCCCCCCC/C=C\CCCCCCCC(=O)O` [Oleic acid], the activity at 2000 µM on AATase [2] is 59.6%.
With `O=C(O)c1cc[c]([Hg][Cl])cc1` [PCMB, pChloromercuribenzoic acid], on AATase [1], the “Inhibition of the enzyme (in words)” value is listed as “inhibited strongly; also recorded: intensively inhibited” and the “Relative activity (%)” value was found to be 0%.
Take `O=S(=O)(F)Cc1ccccc1` [PMSF, Phenylmethanesulfonyl fluoride]: the “Relative activity (%)” value on AATase [1] is 70.2%.
As to `CCCCCCCCCCCCCCCC(=O)O` [Palmitic acid], on AATase [2], the activity at 2000 µM came out at 88.1%.
On the same count and under the same terms, for `CCCCCC/C=C\CCCCCCCC(=O)O` [Palmitoleic acid] the value was 16.7%.
Still for that read-out and setting: with `CCCCCCCCCCCCCCCCCC(=O)O` [Stearic acid] the figure was 80.5%.

B1: AATase (Saccharomyces cerevisiae S288C; N391K/T84I) (protein)
chain: MNEIDEKNQAPVQQECLKEMIQNGHARRMGSVEDLYVALNRQNLYRNFCTYGELSDYCTRDQLTLALREICLKNPTLLHIVLPIRWPNHENYYRSSEYYSRPHPVHDYISVLQELKLSGVVLNEQPEYSAVMKQILEEFKNSKGSYTAKIFKLTTTLTIPYFGPTGPSWRLICLPEEHTEKWKKFIFVSNHCMSDGRSSIHFFHDLRDELNNIKTPPKKLDYIFKYEEDYQLLRKLPEPIEKVIDFRPPYLFIPKSLLSGFIYNHLRFSSKGVCMRMDDVEKTDDVVTEIINISPTEFQAIKANIKSNIQGKCTITPFLHVCWFVSLHKWGKFFKPLNFEWLTDIFIPADCRSQLPDDDEMRQMYRYGANVGFIDFTPWISEFDMNDNKEKFWPLIEHYHEVISEALRNKKHLHGLGFNIQGFVQKYVNIDKVMCDRAIGKRRGGTLLSNVGLFNQLEEPDAKYSICDLAFGQFQGSWHQAFSLGVCSTNVKGMNIVVASTKNVVGSQESLEELCSIYKALLLGP
notes: culturing yeast cells of Saccharomyces cerevisiae KYOKAI No. 7 and recovering and purifying the crude enzyme; endogenous in cells; host or cells: Saccharomyces cerevisiae KYOKAI No. 7 (sake yeast)
For B1, the Km (usually the substrate concentration at which the rate is half of its maximum) in series [3] came out at 190 µM; in series [4], 29.8 mM.

Values taken from patent US5521088A, “Alcohol acetyltransferase genes and use thereof” (Kirin Beer Kabushiki Kaisha, priority 1992, dated 1996).
